# Results from patent US10583109B2, “Use of silver(I) complexes as anticancer agents” (University of Johannesburg, priority 2012, dated 2020).
# Columns and labels:
# [1] = system: SNO-oesophageal cancer cells; test: Morphological features of SNO-oesophageal cancer cells by inverse light microscopy; assay type: cell-based; conditions: 10 μM, 24 hours of treatment
# Experimental: Morphological studies were done by means of an Axiovert 25 inverted microscope (Carl Zeiss, Göttingen, Germany) with Axio Vision 3.1 software (Carl Zeiss, Göttingen, Germany) using an magnification of 100×.
# After 24 hours of treatment with complexes (1)-(5) including their ligands the cells were examined under said Axiovert 25 inverted light microscope. This was done to determine how the complexes of the present invention influence morphology which was compared to 100 μM Cisplatin (apoptotic control) and 15% H2O2 (necrotic control).
# Light microscope images indicating the morphology of the differentially treated SNO-oesophageal cancer cells is shown in FIG. 8. An untreated control (a) including 100 μM Cisplatin (b), an apoptotic control and 15% H2O2 (c), and a necrotic control was included. Cells were treated with 10 μM silver(I) thiocyanate phosphine complexes (1)-(5) as well as their separate ligands (Ligand-1 to Ligand-5, respectively) (FIGS. 8d to 8m). Black arrows represent signs of apoptosis, while the white arrows represent signs of necrosis.
# An Axiovert 25 inverted microscope was used to examine if these complexes affect the morphological features of the malignant cells in any other way. This was done at a magnification of 100× with the use of Axio Version 3.1 software (Carl Zeiss, Gottingen, Germany).
# Morphological studies where done after 24 hours of treatment to determine how these compounds influence/change specific features of the malignant SNO-oesophageal cancer cells, compared to the untreated (UC) and 1% DMSO vehicle control. The treated cancer cells including their controls were examined under an Axiovert 25 inverted light microscope (Carl Zeiss, Göttingen, Germany) with Axio Vision 3.1 software (Carl Zeiss, Göttingen, Germany) using a 100× magnification. In FIG. 19, the morphology of the different controls including Ligand-10 and complexes (10)-(12) are represented. To predict the targeting mechanisms of these compounds, the treated cells were compared to 100 μM Cisplatin (apoptotic control) and 25% H2O2 (necrotic control).
# [2] = system: MCF-7 breast cancer cells; test: Morphological features of MCF-7 cells by inverse light microscopy; assay type: cell-based, human; conditions: 10 μM, 24 hours after treatment, compared to 100 μM Cisplatin apoptotic control
# Experimental: The morphological features of MCF-7 cells following differential treatments were evaluated by inverse light microscopy as depicted in FIG. 4. Untreated cells served as the control, while 1% DMSO served as the solvent control and 100 μM Cisplatin indicates apoptotic cells. Cells were exposed to 10 μM of complexes (1)-(5). Morphological changes of the cell indicative of apoptosis include cell shrinkage and blebbing.
# In the light of the decreased viability, the morphology of the cells was studied 24 hours after treatment with 10 μM of complexes (1), (2), (3), (4) and (5) to determine if apoptotic or necrotic features were present. The morphology of the cells was compared to the apoptotic control treated with 100 μM Cisplatin (FIG. 4).
# Caspase-3/7 = test: Caspase-Glo 3/7 assay in SNO-oesophageal cancer cells; assay type: cell-based; set-up: increase in Caspase-3/7 expression: unit not given here; conditions: 10 μM, 24 hours treatment
# Experimental: The Caspase-Glo®3/7 assay was used to confirm that the structural changes observed are due to apoptotic cell death. In this luminescent based assay, a 1:1 ratio of the Caspase-Glo® reagent was added to treated cells into a microtiter plate. The plate was gently agitated for 30 seconds and incubated for 30 minutes at room temperature. The whole luminescent intensity was measured using a Synergy HT Multi-Detection Microplate reader, where the intensity of the luminescence is proportional to the Caspase-3/7 concentration.
# The error bars where constructed based on the standard error of the mean (SEM) where n=6. The significant difference were calculated with respect to the vehicle control (P<**0.001). A relative increase in expression was observed throughout.
# A-549 lung cancer cells [3] = test: AlamarBlue viability and proliferation assay of A-549 lung cancer cells; assay type: cell-based; conditions: 2.5 μM, 24 h
# Experimental: A-549 lung cancer cells were maintained in DMEM supplemented with 10% fetal calf serum (FCS), 1 mM pyruvate, 2 mM L-glutamine (Highveld Biological, Kelvin, RSA), 1% antibiotics (penicillin, streptomycin, amphotericin (Highveld Biological, Kelvin, RSA) and gentamycin (Invitrogen Life Technologies, Eugene, Oreg.)).
# Cells (1×10^4 cells/well) were plated in 96-well flat-bottomed plates and incubated for 24 h at 37° C. with 5% CO2. All compounds were preheated for 30 min prior treatment. After 24 h compounds (2.5 μM) were mixed with supplemented media and incubated for 24 h. For the untreated control supplemented media was used. Since all compounds were dissolved in DMSO, a 1% DMSO was used as a vehicle control.
# The A-549 lung cancer cells were incubated at 37° C. for 3 h in the presence of 10% AlamarBlue® viability and proliferation assay (Invitrogen Life Technologies, Eugene, Oreg.). […] Fluorescence was measured at 530-560 nm (excitation) and 590 nm (emission).
# FIG. 27 is a bar chart showing percentage cellular viability of fibroblast cells and A-549 lung cancer cells treated with various molar ratios (complexes (6)-(9)) using the AlamarBlue® cell viability assay whereby the molar ratio of the silver(I) nitrate salt: phosphine ligand of 1:1, 1:2, 1:3 and 1:4 was assessed. Fluorescence was measured with 530 nm excitation wavelength and 590 nm emission wavelength. […]
# A-549 lung cancer cells [4] = test: Morphological features of A-549 lung cancer cells by inverse light microscopy; assay type: cell-based; conditions: A-549 cells
# Experimental: Morphological studies were conducted using a Zeiss Axiovert 25 Inverted Light Microscope [Carl Zeiss, Germany] with photographs taken with an Axio Cam Camera and Axio Vision 3.1 software [Carl Zeiss, Germany] at 100× magnification.
# Morphological features of A-549 lung cancer cells evaluated by inverse light microscopy following differential treatments are indicated in FIG. 28: (A)=Untreated Negative Control; (B)=1% DMSO Vehicle Control (VC); (C)=100 μM Cisplatin (CDDP) Positive Apoptotic Control; (D)=Hydrogen Peroxide Positive Necrotic Control; (E)=complex (6) having a molar ratio of 1:1; (F)=Triphenylphosphine Ligand; (G)=complex (9) having a molar ratio of 1:4. Cells were visualised with Zeiss Axiovert 25 Inverted Light Microscope with photographs taken at 100× magnification. Morphology of A-549 lung cancer cells after differential treatments resembled that of the positive apoptotic control with characteristic apoptotic cellular morphology such as blebbing, rounding and cell shrinkage being observed.
Compound,necrotic cell death (morphology) [1],cell morphology (apoptotic or necrotic features) [2],increase in Caspase-3/7 expression (Caspase-3/7),toxicity to A-549 lung cancer cells (A-549 lung cancer cells [3]),signs of apoptosis (morphology) (A-549 lung cancer cells [4])
"C1#[N+][Ag]([P+](c2ccccc2)(c2ccccc2)c2ccccc2)([P+](c2ccccc2)(c2ccccc2)c2ccccc2)[S]C#[N+][Ag]([P+](c2ccccc2)(c2ccccc2)c2ccccc2)([P+](c2ccccc2)(c2ccccc2)c2ccccc2)[S]1 [complex (1), [AgSCN(PPh3)2]2]",Necrotic cell death was also observed,morphology characteristic of necrosis,,,
"c1ccc([P+](c2ccccc2)(c2ccccc2)[Ag+]([P+](c2ccccc2)(c2ccccc2)c2ccccc2)([P+](c2ccccc2)(c2ccccc2)c2ccccc2)[P+](c2ccccc2)(c2ccccc2)c2ccccc2)cc1 [complex (9), AgNO3(PPh3)4]",,,2.74,higher toxicity level,more effective
[AgSCN{P(4-FC6H4)3}2]2 [complex (3)],Necrotic cell death was also observed,,,,
